Test results from patent US11198713B2, “Agents modulating beta-catenin functions and methods thereof” (FOG PHARMACEUTICALS, INC., priority 2017, dated 2021).
Read-outs that look alike come from different tables or passages of the source.

Columns and labels:
[1] = biological target: T1, biotinylated beta-catenin (Homo sapiens, UniProt P35222); experiment: Surface Plasmon Resonance (Biacore); format: binding
T1 sequence (P35222 1-781): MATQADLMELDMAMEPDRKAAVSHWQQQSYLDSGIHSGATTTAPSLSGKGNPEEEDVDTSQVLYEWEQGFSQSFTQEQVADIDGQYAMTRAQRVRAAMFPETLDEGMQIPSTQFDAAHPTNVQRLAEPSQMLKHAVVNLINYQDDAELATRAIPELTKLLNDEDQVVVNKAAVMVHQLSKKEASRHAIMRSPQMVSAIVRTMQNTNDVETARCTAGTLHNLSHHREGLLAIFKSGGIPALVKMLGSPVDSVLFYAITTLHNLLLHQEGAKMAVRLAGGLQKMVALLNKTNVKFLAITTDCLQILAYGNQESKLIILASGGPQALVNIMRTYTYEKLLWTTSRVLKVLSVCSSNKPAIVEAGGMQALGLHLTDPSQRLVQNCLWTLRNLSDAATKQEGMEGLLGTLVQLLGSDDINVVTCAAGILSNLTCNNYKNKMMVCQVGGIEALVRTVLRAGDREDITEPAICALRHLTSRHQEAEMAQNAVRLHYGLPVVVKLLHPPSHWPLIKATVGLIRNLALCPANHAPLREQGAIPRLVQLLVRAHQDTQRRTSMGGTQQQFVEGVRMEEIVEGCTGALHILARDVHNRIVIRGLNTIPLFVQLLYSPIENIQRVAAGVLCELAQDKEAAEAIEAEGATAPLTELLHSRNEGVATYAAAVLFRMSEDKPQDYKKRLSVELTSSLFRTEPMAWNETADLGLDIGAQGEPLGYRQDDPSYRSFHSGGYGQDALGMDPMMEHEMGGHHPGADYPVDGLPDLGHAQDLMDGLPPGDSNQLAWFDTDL
Experimental: Additionally or alternatively, binding to beta-catenin may be measured by Surface Plasmon Resonance. In an exemplary assay, approximately 6 nmol dried peptide diluted in buffer (50 mM Tris pH 8.0, 300 mM NaCl, 2% glycerol, 0.5 mM TCEP, 0.5 mM EDTA, 0.005% Tween-20, 1 mg/mL CM Dextran, 0.02% w/v sodium azide) was assayed on a Biacore X100 using the Biacore Biotin CAPture Kit (GE Healthcare) and biotinylated beta-catenin. Results were analyzed using the Biacore X100 Evaluation Software. […] FPO217c (Isomer 2) bound to the armadillo domain of β-catenin with a Kd of 2 nM.

[2] = biological target: T2, full-length beta-catenin (Axin site) (Homo sapiens, UniProt P35222); experiment: Competition fluorescence polarization assay (Axin site probe); format: binding; settings: competition fluorescence polarization, Table 2; read-out: in vitro FP EC50
T2 construct: 15 nM full-length beta-catenin, 20 nM FITC labeled peptide in buffer
T2 sequence (P35222 1-781): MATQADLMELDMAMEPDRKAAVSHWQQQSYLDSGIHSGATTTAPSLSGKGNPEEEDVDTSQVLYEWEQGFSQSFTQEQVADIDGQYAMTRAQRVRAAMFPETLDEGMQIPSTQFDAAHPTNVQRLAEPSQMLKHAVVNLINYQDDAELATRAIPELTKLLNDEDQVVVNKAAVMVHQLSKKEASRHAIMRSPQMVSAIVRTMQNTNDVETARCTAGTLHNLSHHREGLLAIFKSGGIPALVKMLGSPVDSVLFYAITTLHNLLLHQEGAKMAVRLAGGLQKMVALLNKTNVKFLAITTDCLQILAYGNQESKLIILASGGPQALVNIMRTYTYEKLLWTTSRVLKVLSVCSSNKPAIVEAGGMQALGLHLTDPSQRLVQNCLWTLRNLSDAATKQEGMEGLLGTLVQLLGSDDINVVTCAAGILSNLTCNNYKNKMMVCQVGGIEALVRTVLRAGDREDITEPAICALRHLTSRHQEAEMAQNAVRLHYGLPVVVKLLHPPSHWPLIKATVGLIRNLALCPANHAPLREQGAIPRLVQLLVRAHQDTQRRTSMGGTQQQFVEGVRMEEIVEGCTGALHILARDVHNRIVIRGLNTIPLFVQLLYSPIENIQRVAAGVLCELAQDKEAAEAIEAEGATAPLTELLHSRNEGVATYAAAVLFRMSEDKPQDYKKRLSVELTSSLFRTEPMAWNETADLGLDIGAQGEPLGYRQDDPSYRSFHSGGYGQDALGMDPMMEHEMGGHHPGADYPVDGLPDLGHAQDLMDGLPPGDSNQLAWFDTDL
Procedure, shortened: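 Competition FP: 15 nM full-length β-catenin pre-incubated 5 min with 20 nM FITC-labelled stapled Axin-site peptide, then titrated peptide added (3-fold series from 5 μM) for 15 min in the dark. Buffer 50 mM Tris pH 8.0, 250 mM NaCl, 2% glycerol, 0.5 mM EDTA; duplicate reads.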

[3] = Biacore, biotinylated beta-catenin, read-out: Kd

| Kd ([1]; Table 2, read-out: Kd by SPR) | EC50 [2] | Kd [1, 3] | Compound |
| --- | --- | --- | --- |
| – | – | ~22 nM | CC[C@H](C)[C@@H]1NC(=O)C2(NC(=O)[C@H](CCC(N)=O)NC(=O)[C@@H]3CCCN3C(C)=O)CN(C2)C(=O)OCC=CCCCC[C@](C)(C(=O)N[C@@H](Cc2c[nH]cn2)C(=O)N[C@H](C(=O)N[C@@H](CCCNC(=N)N)C(=O)N[C@@H](CCCNC(=N)N)C(=O)N[C@H](C(=O)N[C@@H](Cc2c[nH]c3ccccc23)C(=O)N[C@@H](CCCNC(=N)N)C(N)=O)C(C)C)C(C)C)NC(=O)[C@H](CC(=O)O)NC(=O)[C@H](CC(C)C)NC1=O (single isomer, unassigned) [FP-0725c, Ac-P-Q-Az-I-L-D-R6-H-V-R-R-V-W-R-NH2] |
| – | – | ~34 nM | CC[C@H](C)[C@@H]1NC(=O)[C@@]2(NC(=O)[C@H](CCC(N)=O)NC(=O)[C@@H]3CCCN3C(C)=O)CCN(CC=CCCCC[C@](C)(C(=O)N[C@@H](Cc3c[nH]cn3)C(=O)N[C@H](C(=O)N[C@@H](CCCNC(=N)N)C(=O)N[C@@H](CCCNC(=N)N)C(=O)N[C@H](C(=O)N[C@@H](Cc3c[nH]c4ccccc34)C(=O)N[C@@H](CCCNC(=N)N)C(N)=O)C(C)C)C(C)C)NC(=O)[C@H](CC(=O)O)NC(=O)[C@H](CC(C)C)NC1=O)C2 (single isomer, unassigned) [FP-0745a] |

More lines, now with the values behind:

| Compound | Kd ([1]; Table 2, read-out: Kd by SPR) | EC50 [2] | Kd [1, 3] |
| --- | --- | --- | --- |
| CC[C@H](C)[C@@H]1NC(=O)C2(NC(=O)[C@H](CCC(N)=O)NC(=O)[C@@H]3CCCN3C(C)=O)CN(C2)C(=O)OCC=CCCCC[C@](C)(C(=O)N[C@@H](Cc2c[nH]cn2)C(=O)N[C@H](C(=O)N[C@@H](CCCNC(=N)N)C(=O)N[C@@H](CCCNC(=N)N)C(=O)N[C@H](C(=O)N[C@@H](Cc2c[nH]c3ccccc23)C(=O)N[C@@H](CCCNC(=N)N)C(N)=O)C(C)C)C(C)C)NC(=O)[C@H](CC(=O)O)NC(=O)[C@H](CC(C)C)NC1=O (single isomer, unassigned) [FP0725c, Ac-P-Q-MA-I-L-D-R6-H-V-R-R-V-W-R-NH2] | 22 nM | < 100 nM | – |
| CC[C@H](C)[C@@H]1NC(=O)[C@@](C)(NC(=O)[C@H](CCC(N)=O)NC(=O)[C@@H]2CCCN2C(C)=O)CCCCCC=CCN2CC(C(=O)N[C@@H](Cc3c[nH]cn3)C(=O)N[C@H](C(=O)N[C@@H](CCCNC(=N)N)C(=O)N[C@@H](CCCNC(=N)N)C(=O)N[C@H](C(=O)N[C@@H](Cc3c[nH]c4ccccc34)C(=O)N[C@@H](CCCNC(=N)N)C(N)=O)C(C)C)C(C)C)(C2)NC(=O)[C@H](CC(=O)O)NC(=O)[C@H](CC(C)C)NC1=O (single isomer, unassigned) [FP0738a, Ac-P-Q-S7-I-L-D-MA-H-V-R-R-V-W-R-NH2] | 43 nM | 100 to 500 nM | – |
| CC[C@H](C)[C@@H]1NC(=O)[C@@]2(NC(=O)[C@H](CCC(N)=O)NC(=O)[C@@H]3CCCN3C(C)=O)CCN(CC=CCCCC[C@](C)(C(=O)N[C@@H](Cc3c[nH]cn3)C(=O)N[C@H](C(=O)N[C@@H](CCCNC(=N)N)C(=O)N[C@@H](CCCNC(=N)N)C(=O)N[C@H](C(=O)N[C@@H](Cc3c[nH]c4ccccc34)C(=O)N[C@@H](CCCNC(=N)N)C(N)=O)C(C)C)C(C)C)NC(=O)[C@H](CC(=O)O)NC(=O)[C@H](CC(C)C)NC1=O)C2 (single isomer, unassigned) [FP0745a, Ac-P-Q-MC-I-L-D-R6-H-V-R-R-V-W-R-NH2] | 34 nM | 100 to 500 nM | – |
